Reference: patent US9687479B2, “Multisubstituted aromatic compounds as serine protease inhibitors” (VERSEON CORPORATION, priority 2013, dated 2017)
pIC50: −log10 of the molar value.

Each molecule was assayed against Human thrombin (Homo sapiens (Human), UniProt P00734) (assay: Thrombin protease activity inhibition assay (chromogenic substrate S-2238)). Conditions: 3 nM thrombin, 125 μM S-2238, 10 min pre-incubation, RT.
Assay type: biochemical
Summary of the method: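 Ten-point, three-fold serial dilutions of compound tested against 3 nM enzyme at RT in Tris buffer (0.05 M, pH 7.4) with 0.015 M NaCl and 0.01% PEG-8000.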

First: O=C(c1ccco1)n1nc(-c2cccn(CCN3CCOCC3)c2=O)cc1NCc1ccc(Cl)s1 [Cmpd 170, 3-(5-[(5-chlorothiophen-2-yl)methyl]amino-1-[(furan-2-yl)carbonyl]-1H-pyrazol-3-yl)-1-[2-(morpholin-4-yl)ethyl]-1,2-dihydropyridin-2-one]
Second: O=C(c1ccoc1)n1nc(-c2cccn(CCN3CCOCC3)c2=O)cc1NCc1ccc(Cl)s1 [Cmpd 181, 3-(5-[(5-chlorothiophen-2-yl)methyl]amino-1-[(furan-3-yl)carbonyl]-1H-pyrazol-3-yl)-1-[2-(morpholin-4-yl)ethyl]-1,2-dihydropyridin-2-one]
The pIC50 of the first is lower: under 4.00 for the first, over 7.00 for the second.

First: COCCn1cccc(-c2cc(NCc3ccc(Cl)s3)n(C(=O)c3ccoc3)n2)c1=O [Cmpd 171, 3-(5-[(5-chlorothiophen-2-yl)methyl]amino-1-[(furan-3-yl)carbonyl]-1H-pyrazol-3-yl)-1-(2-methoxyethyl)-1,2-dihydropyridin-2-one]
Second: O=C(c1ccoc1)n1nc(-c2cccn(CCc3ccccc3)c2=O)cc1NCc1ccc(Cl)s1 [Cmpd 172, 3-(5-[(5-chlorothiophen-2-yl)methyl]amino-1-[(furan-3-yl)carbonyl]-1H-pyrazol-3-yl)-1-(2-phenylethyl)-1,2-dihydropyridin-2-one]
The pIC50 of the first is lower: under 4.00 for the first, over 7.00 for the second. The second is the more potent here.

`O=C(c1ccoc1)n1nc(-c2cccn(Cc3ccoc3)c2=O)cc1NCc1ccc(Cl)s1` [Cmpd 173, 3-(5-[(5-chlorothiophen-2-yl)methyl]amino-1-[(furan-3-yl)carbonyl]-1H-pyrazol-3-yl)-1-(furan-3-ylmethyl)-1,2-dihydropyridin-2-one] and `O=C(c1ccoc1)n1nc(-c2cccn(Cc3cccnc3)c2=O)cc1NCc1ccc(Cl)s1` [Cmpd 177, 3-(5-[(5-chlorothiophen-2-yl)methyl]amino-1-[(furan-3-yl)carbonyl]-1H-pyrazol-3-yl)-1-(pyridin-3-ylmethyl)-1,2-dihydropyridin-2-one] cannot be ordered by pIC50: over 7.00 for the first, over 7.00 for the second.

`O=C(c1ccoc1)n1nc(-c2cccn(Cc3cccc4ccccc34)c2=O)cc1NCc1ccc(Cl)s1` [Cmpd 174, 3-(5-[(5-chlorothiophen-2-yl)methyl]amino-1-[(furan-3-yl)carbonyl]-1H-pyrazol-3-yl)-1-(naphthalen-1-ylmethyl)-1,2-dihydropyridin-2-one] and `O=C(c1ccoc1)n1nc(-c2cccn(Cc3ccc4ccccc4c3)c2=O)cc1NCc1ccc(Cl)s1` [Cmpd 175, 3-(5-[(5-chlorothiophen-2-yl)methyl]amino-1-[(furan-3-yl)carbonyl]-1H-pyrazol-3-yl)-1-(naphthalen-2-ylmethyl)-1,2-dihydropyridin-2-one] cannot be ordered by pIC50: over 7.00 for the first, over 7.00 for the second.

`O=C(c1ccoc1)n1nc(-c2cccn(Cc3cccnn3)c2=O)cc1NCc1ccc(Cl)s1` [Cmpd 176, 3-(5-[(5-chlorothiophen-2-yl)methyl]amino-1-[(furan-3-yl)carbonyl]-1H-pyrazol-3-yl)-1-(pyridazin-3-ylmethyl)-1,2-dihydropyridin-2-one] and `O=C(c1ccsc1)n1nc(-c2cccn(Cc3cccnn3)c2=O)cc1NCc1ccc(Cl)s1` [Cmpd 197, 3-(5-[(5-chlorothiophen-2-yl)methyl]amino-1-[(thiophen-3-yl)carbonyl]-1H-pyrazol-3-yl)-1-(pyridazin-3-ylmethyl)-1,2-dihydropyridin-2-one] cannot be ordered by pIC50: over 7.00 for the first, over 7.00 for the second.

`O=C(c1ccoc1)n1nc(-c2cccn(Cc3ncccn3)c2=O)cc1NCc1ccc(Cl)s1` [Cmpd 178, 3-(5-[(5-chlorothiophen-2-yl)methyl]amino-1-[(furan-3-yl)carbonyl]-1H-pyrazol-3-yl)-1-(pyrimidin-2-ylmethyl)-1,2-dihydropyridin-2-one] and `O=C(c1cccs1)n1nc(-c2cccn(Cc3ncccn3)c2=O)cc1NCc1ccc(Cl)s1` [Cmpd 189, 3-(5-[(5-chlorothiophen-2-yl)methyl]amino-1-[(thiophen-2-yl)carbonyl]-1H-pyrazol-3-yl)-1-(pyrimidin-2-ylmethyl)-1,2-dihydropyridin-2-one] cannot be ordered by pIC50: over 7.00 for the first, over 7.00 for the second.

`O=C(Cn1cccc(-c2cc(NCc3ccc(Cl)s3)n(C(=O)c3ccoc3)n2)c1=O)N1CCOCC1` [Cmpd 180, 3-(5-[(5-chlorothiophen-2-yl)methyl]amino-1-[(furan-3-yl)carbonyl]-1H-pyrazol-3-yl)-1-[2-(morpholin-4-yl)-2-oxoethyl]-1,2-dihydropyridin-2-one] and `O=C(c1ccsc1)n1nc(-c2cccn(CCN3CCOCC3)c2=O)cc1NCc1ccc(Cl)s1` [Cmpd 204, 3-(5-[(5-chlorothiophen-2-yl)methyl]amino-1-[(thiophen-3-yl)carbonyl]-1H-pyrazol-3-yl)-1-[2-(morpholin-4-yl)ethyl]-1,2-dihydropyridin-2-one] cannot be ordered by pIC50: over 7.00 for the first, over 7.00 for the second.

`O=C(c1cccs1)n1nc(-c2cccn(Cc3ccco3)c2=O)cc1NCc1ccc(Cl)s1` [Cmpd 183, 3-(5-[(5-chlorothiophen-2-yl)methyl]amino-1-[(thiophen-2-yl)carbonyl]-1H-pyrazol-3-yl)-1-(furan-2-ylmethyl)-1,2-dihydropyridin-2-one] and `O=C(c1cccs1)n1nc(-c2cccn(Cc3cccs3)c2=O)cc1NCc1ccc(Cl)s1` [Cmpd 190, 3-(5-[(5-chlorothiophen-2-yl)methyl]amino-1-[(thiophen-2-yl)carbonyl]-1H-pyrazol-3-yl)-1-(thiophen-2-ylmethyl)-1,2-dihydropyridin-2-one] cannot be ordered by pIC50: over 7.00 for the first, over 7.00 for the second.

Compared with `O=C(c1cccs1)n1nc(-c2cccn(Cc3cccnn3)c2=O)cc1NCc1ccc(Cl)s1` [Cmpd 185, 3-(5-[(5-chlorothiophen-2-yl)methyl]amino-1-[(thiophen-2-yl)carbonyl]-1H-pyrazol-3-yl)-1-(pyridazin-3-ylmethyl)-1,2-dihydropyridin-2-one], `O=C(c1cccs1)n1nc(-c2cccn(Cc3ccccn3)c2=O)cc1NCc1ccc(Cl)s1` [Cmpd 186, 3-(5-[(5-chlorothiophen-2-yl)methyl]amino-1-[(thiophen-2-yl)carbonyl]-1H-pyrazol-3-yl)-1-(pyridin-2-ylmethyl)-1,2-dihydropyridin-2-one] is higher in pIC50: under 4.00 for the first, over 7.00 for the second. The second is the more potent here.

`O=C(c1cccs1)n1nc(-c2cccn(Cc3cccnc3)c2=O)cc1NCc1ccc(Cl)s1` [Cmpd 187, 3-(5-[(5-chlorothiophen-2-yl)methyl]amino-1-[(thiophen-2-yl)carbonyl]-1H-pyrazol-3-yl)-1-(pyridin-3-ylmethyl)-1,2-dihydropyridin-2-one] and `O=C(c1cccs1)n1nc(-c2cccn(Cc3ccncc3)c2=O)cc1NCc1ccc(Cl)s1` [Cmpd 188, 3-(5-[(5-chlorothiophen-2-yl)methyl]amino-1-[(thiophen-2-yl)carbonyl]-1H-pyrazol-3-yl)-1-(pyridin-4-ylmethyl)-1,2-dihydropyridin-2-one] cannot be ordered by pIC50: over 7.00 for the first, over 7.00 for the second.

`O=C(c1cccs1)n1nc(-c2cccn(Cc3ccsc3)c2=O)cc1NCc1ccc(Cl)s1` [Cmpd 191, 3-(5-[(5-chlorothiophen-2-yl)methyl]amino-1-[(thiophen-2-yl)carbonyl]-1H-pyrazol-3-yl)-1-(thiophen-3-ylmethyl)-1,2-dihydropyridin-2-one] and `O=C(c1ccsc1)n1nc(-c2cccn(Cc3cccs3)c2=O)cc1NCc1ccc(Cl)s1` [Cmpd 202, 3-(5-[(5-chlorothiophen-2-yl)methyl]amino-1-[(thiophen-3-yl)carbonyl]-1H-pyrazol-3-yl)-1-(thiophen-2-ylmethyl)-1,2-dihydropyridin-2-one] cannot be ordered by pIC50: over 7.00 for the first, over 7.00 for the second.

First: O=C(c1cccs1)n1nc(-c2cccn(CCN3CCOCC3)c2=O)cc1NCc1ccc(Cl)s1 [Cmpd 192, 3-(5-[(5-chlorothiophen-2-yl)methyl]amino-1-[(thiophen-2-yl)carbonyl]-1H-pyrazol-3-yl)-1-[2-(morpholin-4-yl)ethyl]-1,2-dihydropyridin-2-one]
Second: O=C(c1ccccc1N1CCOCC1)n1nc(-c2ccc[nH]c2=O)cc1NCc1ccc(Cl)s1 [Cmpd 205, 3-(5-[(5-chlorothiophen-2-yl)methyl]amino-1-[2-(morpholin-4-yl)phenyl]carbonyl-1H-pyrazol-3-yl)-1,2-dihydropyridin-2-one]
The pIC50 of the first is lower: under 4.00 for the first, 5.00 to 6.00 for the second. The second is the more potent here.

`O=C(c1ccsc1)n1nc(-c2ccc[nH]c2=O)cc1NCc1ccc(Cl)s1` [Cmpd 193, 3-(5-[(5-chlorothiophen-2-yl)methyl]amino-1-[(thiophen-3-yl)carbonyl]-1H-pyrazol-3-yl)-1,2-dihydropyridin-2-one] and `O=C(c1ccsc1)n1nc(-c2cccn(Cc3ccco3)c2=O)cc1NCc1ccc(Cl)s1` [Cmpd 195, 3-(5-[(5-chlorothiophen-2-yl)methyl]amino-1-[(thiophen-3-yl)carbonyl]-1H-pyrazol-3-yl)-1-(furan-2-ylmethyl)-1,2-dihydropyridin-2-one] cannot be ordered by pIC50: over 7.00 for the first, over 7.00 for the second.

Compared with `O=C(c1ccsc1)n1nc(-c2cccn(Cc3cccnc3)c2=O)cc1NCc1ccc(Cl)s1` [Cmpd 199, 3-(5-[(5-chlorothiophen-2-yl)methyl]amino-1-[(thiophen-3-yl)carbonyl]-1H-pyrazol-3-yl)-1-(pyridin-3-ylmethyl)-1,2-dihydropyridin-2-one], `O=C(c1ccsc1)n1nc(-c2cccn(Cc3ccncc3)c2=O)cc1NCc1ccc(Cl)s1` [Cmpd 200, 3-(5-[(5-chlorothiophen-2-yl)methyl]amino-1-[(thiophen-3-yl)carbonyl]-1H-pyrazol-3-yl)-1-(pyridin-4-ylmethyl)-1,2-dihydropyridin-2-one] is higher in pIC50: under 4.00 for the first, over 7.00 for the second. The second is the more potent here.

`COCCOc1ccc(C(=O)n2nc(-c3ccc[nH]c3=O)cc2NCc2ccc(Cl)s2)cc1` [Cmpd 206, 3-(5-[(5-chlorothiophen-2-yl)methyl]amino-1-[4-(2-methoxyethoxy)phenyl]carbonyl-1H-pyrazol-3-yl)-1,2-dihydropyridin-2-one] and `O=C(c1ccc(N2CCOCC2)cc1)n1nc(-c2ccc[nH]c2=O)cc1NCc1ccc(Cl)s1` [Cmpd 207, 3-(5-[(5-chlorothiophen-2-yl)methyl]amino-1-[4-(morpholin-4-yl)phenyl]carbonyl-1H-pyrazol-3-yl)-1,2-dihydropyridin-2-one] cannot be ordered by pIC50: over 7.00 for the first, over 7.00 for the second.
